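Interpolation was linear, between the two tested concentrations surrounding the appropriate level; five concentrations were tested over 48 hours in 96-well plates. GI50 marks 50% less growth.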 The source made the active and inactive calls. Rule as the data show it: active = GI50 up to about 1.1 µM and inactive = higher.
Columns and labels:
Assay in all cases: growth of human tumour cells (NCI), 48 h
[1] = test system: MOLT-4
[2] = test system: BT-549
[3] = test system: U-251
[4] = test system: 786-0
[5] = test system: UACC-62
[6] = test system: HCT-15
[7] = test system: TK-10
[8] = test system: SF-295
[9] = test system: IGROV-1
[10] = test system: MDA-MB-231
[11] = test system: RPMI-8226
[12] = test system: SK-MEL-28
[13] = test system: EKVX
[14] = test system: HL-60
[15] = test system: CCRF-CEM
[16] = test system: DU-145
[17] = test system: SN12C
[18] = test system: MDA-MB-435
[19] = test system: SK-OV-3
[20] = test system: SW-620
[21] = test system: SK-MEL-2
[22] = test system: SF-268
[23] = test system: CAKI-1
[24] = test system: KM12
[25] = test system: HT-29
[26] = test system: SK-MEL-5
[27] = test system: OVCAR-4
[28] = test system: NCI-H522
[29] = test system: NCI-H226
[30] = test system: T47D
[31] = test system: A498
[32] = test system: ACHN
[33] = test system: COLO 205
[34] = test system: A549
[35] = test system: K562
[36] = test system: RXF 393
[37] = test system: UACC-257
[38] = test system: UO-31
[39] = test system: Malme-3M
[40] = test system: PC-3
[41] = test system: HCT-116
[42] = test system: M14
[43] = test system: SNB-75
[44] = test system: Hs-578T
[45] = test system: SNB-19
[46] = test system: SF-539
[47] = test system: MCF7
[48] = test system: MDA-N
[49] = test system: NCI-H460
[50] = test system: HOP-92
[51] = test system: NCI-H23
[52] = test system: SR
[53] = test system: OVCAR-5
[54] = test system: HOP-62
[55] = test system: OVCAR-8
[56] = test system: HCC 2998
[57] = test system: NCI/ADR-RES
[58] = test system: LOX IMVI
[59] = test system: OVCAR-3

With `N#Cc1cnc(-n2[nH]c3c(c2=O)CCCC3)[nH]c1=O` the GI50 [1] was 44.5 µM (inactive), the GI50 [2] was 73.5 µM (inactive) and the GI50 [3] was 58.6 µM (inactive). The GI50 [4] was 49.2 µM (inactive), the GI50 [5] was 38.6 µM (inactive) and the GI50 [6] was 41.1 µM. For the same compound, the GI50 [7] was 51.5 µM (inactive), the GI50 [8] was 40.3 µM (inactive) and the GI50 [9] was > 100 µM (inactive). For the same compound, the GI50 [10] was 39.9 µM (inactive), the GI50 [11] was 88.3 µM (inactive) and the GI50 [12] was 55.2 µM (inactive). For the same compound, the GI50 [13] was 37.6 µM (inactive), the GI50 [14] was 34.8 µM (inactive) and the GI50 [15] was 31.9 µM (inactive). For the same compound, the GI50 [16] was 64.1 µM (inactive), the GI50 [17] was 44.2 µM (inactive) and the GI50 [18] was 54.5 µM (inactive). The GI50 [19] was 75.3 µM (inactive), the GI50 [20] was 50 µM (inactive) and the GI50 [21] was 71.3 µM (inactive). For the same compound, the GI50 [22] was 46 µM (inactive), the GI50 [23] was 39.2 µM (inactive) and the GI50 [24] was 21.8 µM (inactive). The GI50 [25] was 41.2 µM (inactive), the GI50 [26] was 48.1 µM (inactive) and the GI50 [27] was 83.9 µM (inactive). For the same compound, the GI50 [28] was 57.3 µM (inactive), the GI50 [29] was 47.8 µM (inactive) and the GI50 [30] was > 100 µM (inactive). The GI50 [31] was 59 µM (inactive), the GI50 [32] was 47.2 µM (inactive) and the GI50 [33] was 38.5 µM (inactive). For the same compound, the GI50 [34] was 38.5 µM (inactive), the GI50 [35] was 69.8 µM (inactive) and the GI50 [36] was > 100 µM (inactive). The GI50 [37] was 55 µM (inactive), the GI50 [38] was 38.5 µM (inactive) and the GI50 [39] was 50 µM (inactive). For the same compound, the GI50 [40] was 59.4 µM (inactive), the GI50 [41] was 38 µM (inactive) and the GI50 [42] was 38.1 µM (inactive). The GI50 [43] was 0.264 µM (active), the GI50 [44] was > 100 µM (inactive) and the GI50 [45] was > 100 µM (inactive). The GI50 [46] was 43.9 µM (inactive), the GI50 [47] was 39.8 µM (inactive) and the GI50 [48] was > 100 µM (inactive). For the same compound, the GI50 [49] was 36.5 µM (inactive), the GI50 [50] was 35.2 µM (inactive) and the GI50 [51] was 54.3 µM (inactive). The GI50 [52] was 23.8 µM (inactive) and the GI50 [53] was 74.6 µM (inactive).

With `COc1cc(C2S/C(=C/c3ccccc3)C(=O)N2c2cccc([N+](=O)[O-])c2)cc(OC)c1OC` (stereo unspecified) the GI50 [1] was 70.3 µM (inactive), the GI50 [2] was > 100 µM (inactive) and the GI50 [3] was 27.5 µM (inactive). For the same compound, the GI50 [4] was 51.4 µM (inactive), the GI50 [5] was 65.9 µM (inactive) and the GI50 [6] was 71.9 µM. The GI50 [7] was > 100 µM (inactive), the GI50 [8] was 50.1 µM (inactive) and the GI50 [10] was 51.8 µM (inactive). The GI50 [12] was > 100 µM (inactive), the GI50 [13] was 50 µM (inactive) and the GI50 [54] was > 100 µM (inactive). The GI50 [17] was > 100 µM (inactive), the GI50 [18] was 17.5 µM (inactive) and the GI50 [19] was > 100 µM (inactive). The GI50 [21] was 15.9 µM (inactive), the GI50 [22] was 76.2 µM (inactive) and the GI50 [23] was 48.8 µM (inactive). The GI50 [24] was 28.8 µM (inactive), the GI50 [55] was > 100 µM (inactive) and the GI50 [25] was 50.1 µM (inactive). For the same compound, the GI50 [26] was 67.3 µM (inactive), the GI50 [27] was 83.2 µM (inactive) and the GI50 [28] was 38.5 µM (inactive). For the same compound, the GI50 [29] was > 100 µM (inactive), the GI50 [30] was 0.156 µM (active) and the GI50 [31] was > 100 µM (inactive). The GI50 [32] was > 100 µM (inactive), the GI50 [33] was > 100 µM (inactive) and the GI50 [34] was > 100 µM (inactive). For the same compound, the GI50 [35] was 51.5 µM (inactive), the GI50 [56] was > 100 µM (inactive) and the GI50 [37] was > 100 µM (inactive). The GI50 [38] was 94.6 µM (inactive), the GI50 [39] was > 100 µM (inactive) and the GI50 [40] was > 100 µM (inactive). For the same compound, the GI50 [41] was 36.2 µM (inactive), the GI50 [42] was 72.1 µM (inactive) and the GI50 [44] was > 100 µM (inactive). For the same compound, the GI50 [57] was 42.2 µM (inactive), the GI50 [45] was > 100 µM (inactive) and the GI50 [47] was 47.8 µM (inactive). The GI50 [48] was 22.9 µM (inactive), the GI50 [50] was 62.1 µM (inactive) and the GI50 [51] was > 100 µM (inactive). The GI50 [58] was 40.8 µM (inactive), the GI50 [52] was 46.6 µM (inactive) and the GI50 [53] was > 100 µM (inactive).

With `O=C1NN=C(O)C2C3c4ccccc4C(c4ccccc43)C12` (stereo unspecified) the GI50 [1] was > 100 µM (inactive), the GI50 [2] was > 100 µM (inactive) and the GI50 [3] was > 100 µM (inactive). For the same compound, the GI50 [4] was > 100 µM (inactive), the GI50 [5] was > 100 µM (inactive) and the GI50 [6] was > 100 µM. For the same compound, the GI50 [7] was > 100 µM (inactive), the GI50 [8] was > 100 µM (inactive) and the GI50 [9] was > 100 µM (inactive). For the same compound, the GI50 [10] was > 100 µM (inactive), the GI50 [11] was > 100 µM (inactive) and the GI50 [12] was > 100 µM (inactive). The GI50 [13] was > 100 µM (inactive), the GI50 [14] was > 100 µM (inactive) and the GI50 [15] was > 100 µM (inactive). For the same compound, the GI50 [54] was > 100 µM (inactive), the GI50 [16] was > 100 µM (inactive) and the GI50 [17] was > 100 µM (inactive). For the same compound, the GI50 [19] was > 100 µM (inactive), the GI50 [20] was > 100 µM (inactive) and the GI50 [22] was > 100 µM (inactive). The GI50 [23] was > 100 µM (inactive), the GI50 [24] was > 100 µM (inactive) and the GI50 [55] was > 100 µM (inactive). The GI50 [25] was > 100 µM (inactive), the GI50 [26] was > 100 µM (inactive) and the GI50 [27] was > 100 µM (inactive). The GI50 [29] was > 100 µM (inactive), the GI50 [30] was > 100 µM (inactive) and the GI50 [31] was > 100 µM (inactive). For the same compound, the GI50 [32] was > 100 µM (inactive), the GI50 [33] was > 100 µM (inactive) and the GI50 [34] was > 100 µM (inactive). The GI50 [35] was > 100 µM (inactive), the GI50 [56] was > 100 µM (inactive) and the GI50 [36] was > 100 µM (inactive). The GI50 [37] was > 100 µM (inactive), the GI50 [38] was > 100 µM (inactive) and the GI50 [39] was > 100 µM (inactive). The GI50 [40] was > 100 µM (inactive), the GI50 [41] was > 100 µM (inactive) and the GI50 [42] was > 100 µM (inactive). For the same compound, the GI50 [43] was > 100 µM (inactive), the GI50 [44] was > 100 µM (inactive) and the GI50 [57] was > 100 µM (inactive). For the same compound, the GI50 [45] was > 100 µM (inactive), the GI50 [46] was > 100 µM (inactive) and the GI50 [47] was > 100 µM (inactive). The GI50 [48] was > 100 µM (inactive), the GI50 [59] was > 100 µM (inactive) and the GI50 [49] was > 100 µM (inactive). The GI50 [51] was > 100 µM (inactive), the GI50 [58] was > 100 µM (inactive) and the GI50 [52] was > 100 µM (inactive). For the same compound, the GI50 [53] was > 100 µM (inactive).
